PubChem BioAssay AID1918953 (Molecular Pharmacology Branch, DTP, NCI, 2023)
pIC50: −log10 of the molar value.

Tested on: MDA-MB-231 complex spheroid viability
Assay: Anticancer human tumor MDA-MB-231/ATCC cell line growth inhibition;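 note: drug exposure lasted 7 days starting on day 3 of spheroid growth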
Settings: for pIC50: curve of first compound; for viability, T/C: stronger effect = lower value
How it was run: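 Complex spheroids of tumor cells with HUVEC and human MSCs, exposed to iadademstat combined with other agents. Each agent tested in half-log steps from near clinical Cmax (else 10 microM top), DMSO ≤0.25%.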

[1] = second compound 0.1 µM, first compound 0.00316 µM
[2] = second compound 0.1 µM, first compound 0.01 µM
[3] = second compound 0.1 µM, first compound 0.0316 µM
[4] = second compound 0.1 µM, first compound 0.1 µM
[5] = second compound 0.1 µM, first compound 0.316 µM
[6] = second compound 0.1 µM, first compound 1 µM
[7] = second compound 0.316 µM, first compound 0.00316 µM
[8] = second compound 0.316 µM, first compound 0.01 µM
[9] = second compound 0.316 µM, first compound 0.0316 µM
[10] = second compound 0.316 µM, first compound 0.1 µM
[11] = second compound 0.316 µM, first compound 0.316 µM
[12] = second compound 0.316 µM, first compound 1 µM
[13] = second compound 1 µM, first compound 0.00316 µM
[14] = second compound 1 µM, first compound 0.01 µM
[15] = second compound 1 µM, first compound 0.0316 µM
[16] = second compound 1 µM, first compound 0.1 µM
[17] = second compound 1 µM, first compound 0.316 µM
[18] = second compound 1 µM, first compound 1 µM
[19] = second compound 3.16 µM, first compound 0.00316 µM
[20] = second compound 3.16 µM, first compound 0.01 µM
[21] = second compound 3.16 µM, first compound 0.0316 µM
[22] = second compound 3.16 µM, first compound 0.1 µM
[23] = second compound 3.16 µM, first compound 0.316 µM
[24] = second compound 3.16 µM, first compound 1 µM
[25] = second compound 10 µM, first compound 0.00316 µM
[26] = second compound 10 µM, first compound 0.01 µM
[27] = second compound 10 µM, first compound 0.0316 µM
[28] = second compound 10 µM, first compound 0.1 µM
[29] = second compound 10 µM, first compound 0.316 µM
[30] = second compound 10 µM, first compound 1 µM

| Compound | pIC50 (second compound 0.1 µM) | pIC50 (second compound 0.316 µM) | pIC50 (second compound 1 µM) | pIC50 (second compound 3.16 µM) | pIC50 (second compound 10 µM) | viability, T/C [1] | viability, T/C [2] | viability, T/C [3] | viability, T/C [4] | viability, T/C [5] | viability, T/C [6] | viability, T/C [7] | viability, T/C [8] | viability, T/C [9] | viability, T/C [10] | viability, T/C [11] | viability, T/C [12] | viability, T/C [13] | viability, T/C [14] | viability, T/C [15] | further results |
| --- | --- | --- | --- | --- | --- | --- | --- | --- | --- | --- | --- | --- | --- | --- | --- | --- | --- | --- | --- | --- | --- |
| CC1COCCN1c1cc(-c2ccnn2C)c2ccnc(-c3ccn[nH]3)c2n1 (stereo not given) + NC1CC1c1ccc(-c2cccc(O)c2)cc1 | > 8.50 | > 8.50 | > 8.50 | > 8.50 | > 8.50 | 38.1% | 32% | 20.5% | 16.4% | 15.8% | 21.4% | 32.1% | 28.7% | 20.7% | 16.6% | 15.8% | 22.5% | 33.5% | 30.8% | 20.9% | viability, T/C [16]: 15.3%; viability, T/C [17]: 14.3%; viability, T/C [18]: 24%; viability, T/C [19]: 33.4%; viability, T/C [20]: 27.9%; viability, T/C [21]: 19.7%; viability, T/C [22]: 16.9%; viability, T/C [23]: 15.2%; viability, T/C [24]: 22%; viability, T/C [25]: 25.7%; viability, T/C [26]: 20.7%; viability, T/C [27]: 18.1%; viability, T/C [28]: 16.2%; viability, T/C [29]: 15%; viability, T/C [30]: 20.5% |
| O=C(C=Cn1cnc(-c2cc(C(F)(F)F)cc(C(F)(F)F)c2)n1)NNc1cnccn1 + NC1CC1c1ccc(-c2cccc(O)c2)cc1 | > 8.50 | > 8.50 | > 8.50 | > 8.50 | > 8.50 | 27.7% | 27.4% | 13.1% | 5.67% | 4.44% | 5.61% | 28.6% | 27.3% | 13.2% | 5.36% | 5.11% | 5.35% | 25.6% | 25.4% | 14.6% | viability, T/C [16]: 4.77%; viability, T/C [17]: 4.77%; viability, T/C [18]: 4.71%; viability, T/C [19]: 27%; viability, T/C [20]: 25%; viability, T/C [21]: 13.6%; viability, T/C [22]: 5.37%; viability, T/C [23]: 6.01%; viability, T/C [24]: 4.79%; viability, T/C [25]: 22.5%; viability, T/C [26]: 17.5%; viability, T/C [27]: 14.9%; viability, T/C [28]: 5.78%; viability, T/C [29]: 6.15%; viability, T/C [30]: 7.13% |
